From patent US11643438B2, “Antimicrobial peptides and methods of use” (priority 2018, dated 2023)
≈ marks a conversion by molar mass, not a printed value. Entries after “also recorded” stand apart in the source; their conditions may differ. Where two headings read alike, the source gives them in different places. *1 amine or outer side, *2 acyl side, *3 side chain or, on linkers, in order; H or OH if unused. Where a SMILES comes first, the peptide text is derived from it. [ ]: non-standard residue; d: D form. X2 = CC[C@H](C)C[C@H](C)C[C@H](C)C[C@H](N[*:1])C(=O)[*:2]; X1 = CC[C@@H](C)[C@@H](O[*:1])C(=O)[*:2]; NMeVal(β-OH) = CN[C@H](C(=O)O)C(C)(C)O; aIle = CC[C@@H](C)[C@H](N)C(=O)O; NMeV = CN[C@H](C(=O)O)C(C)C; Sar = CNCC(=O)O

Key:
Nodulosporium spp. = assay: MIC/MFC against phytopathogenic (endophytic) fungi
[1] = system: Aspergillus fumigatus NRRL5109; assay: Ex vivo model of fungal keratitis (porcine cornea); conditions: for effect of different doses on fungal growth: FIG. 10
Mycosphaerella populorum = assay: MIC/MFC against phytopathogenic (endophytic) fungi; conditions: Sphaerulina musiva
[2] = Mammalian cell cytotoxicity assay (calcein/Hoechst); assay type: cell-based; conditions: human, read-out: LC50
Method: Cell cytotoxicity was tested against the human liver cancer cell line HepG2 and the HPV-immortalized ectocervical epithelium cell line Ect1/E6E7. The HepG2 cells were cultured in the EMEM medium supplemented with 5% FetalClone III and penicillin/streptomycin (5 Units/mL, 50 ug/mL). The Ect1/E6E7 cells were grown in the RPMI 1640 medium supplemented with 5% FetalClone III, EGF (10 ng/mL Novoprotein #C029), and penicillin/streptomycin (5 Units/mL, 50 ug/mL). For the assays, 5,000 HepG2 or Ect1/E6E7 cells were seeded into each well of a 96-well plate and allowed to attach overnight in a 37° C. humidified incubator. The next day, test compounds were diluted in DMSO, added to the wells at a final DMSO concentration of 0.5% and cells were incubated for an additional 48 hours. Cell viability was determined by the Calcein and Hoechst Assay on the Perkin Elmer Operetta. In each assay, 5 μL of the fluorescent dyes (40 μM calcein AM and 160 μM Hoechst 33342 in DMSO) and 25 μL PBS were added into each well. Plates were incubated for 30 minutes and then analyzed on the Operetta. The Harmony software was used to calculate the whole-cell area by finding all the Hoechst-labeled nuclei. The live and dead cells were assessed based on a threshold of the green calcein fluorescence. […]

C. albicans SC5314 Flu^R = assay: Ex vivo model of fungal keratitis (porcine cornea); set-up: species or system Candida albicans
P. glomerata = assay: MIC/MFC against phytopathogenic (endophytic) fungi
Alternaria brassicae = assay: MIC/MFC against phytopathogenic (endophytic) fungi
Candida albicans SC5314 = assay: Ex vivo model of fungal keratitis (porcine cornea)
Alternaria brassicicola = assay: MIC/MFC against phytopathogenic (endophytic) fungi
Alternaria tennuissiema = assay: MIC/MFC against phytopathogenic (endophytic) fungi

Q: For `CC[C@H](C)C[C@H](C)C[C@H](C)C[C@@H]1NC(=O)[C@H](C(C)C)N(C)C(=O)[C@@H]([C@H](C)CC)OC(=O)[C@H](C(C)(C)O)N(C)C(=O)[C@H](CC(C)C)NC(=O)[C@H](C(C)C)N(C)C(=O)[C@H]([C@H](C)CC)NC(=O)[C@@H]2CCCN2C(=O)CN(C)C1=O` [Compound 1, persephacin] (cyclo(L[NMeVal(β-OH)][X1][NMeV][X2][Sar]P[aIle][NMeV])), which MFC (Nodulosporium spp.) is on record?
A: > 20 µM

Q: What about the MIC (Nodulosporium spp.) of the same compound?
A: > 20 µM

Q: What about the MFC (Nodulosporium spp.; Nodulosporium spp., […]) of the same compound?
A: neither compound showed MIC or MFC activity

Q: What about the MIC (Nodulosporium spp.; Nodulosporium spp., […]) of the same compound?
A: neither compound showed MIC or MFC activity

Q: What about the “effect of different doses on fungal growth” value (“effect of different doses” below) ([1]; Aspergillus fumigatus NRRL 5109, 1,000 μg/mL) of the same compound?
A: eliminating

Q: And the “antifungal activity (fungal growth/infection), in words” value ([1]; Aspergillus fumigatus NRRL 5109, 0.1% 118A, 2% fluconazole, 5% natamycin, FIG. 13)?
A: inhibited the growth; also recorded: eliminated the fungus

Q: And the “effect of different doses” value ([1]; Aspergillus fumigatus NRRL 5109, 50-250 μg/mL)?
A: effective at reducing

Q: What about the CFU ([1]; Aspergillus fumigatus NRRL5109, 118A 0.1% (1 mg/ml), natamycin 5% (50 mg/ml), fluconazole 2% (20 mg/ml)) of the same compound?
A: 0 CFU

Q: And the MFC (Mycosphaerella populorum)?
A: 10 µM (≈ 10.8 µg/mL)

Q: And the MIC (Mycosphaerella populorum)?
A: 2.5 µM (≈ 2.69 µg/mL)

Q: What about the CC50 at 48 h ([2]; Ect1/E6E7 cells (HPV-immortalized ectocervical epithelium), Ect1/E6E7 cell line) of the same compound?
A: 30 µM

Q: What about the CC50 at 48 h ([2]; HepG2 cells, HepG2 cell line) of the same compound?
A: 30 µM

Q: And the CFU (C. albicans SC5314 Flu^R; C. albicans SC5314 Flu^R, 118A 0.1% (1 mg/ml), natamycin 5% (50 mg/ml), fluconazole 2% (20 mg/ml))?
A: 0 CFU

Q: What about the “effect of different doses” value (C. albicans SC5314 Flu^R; Candida albicans SC5314FluR, 50-1,000 μg/mL, FIG. 9) of the same compound?
A: effective at reducing or eliminating the fungus

Q: What about the MFC (P. glomerata) of the same compound?
A: 1.25 µM (≈ 1.34 µg/mL)

Q: What about the MIC (P. glomerata) of the same compound?
A: 0.625 µM (≈ 0.672 µg/mL)

Q: And the MIC (P. glomerata; P. glomerata, […], listed as Persephacin A)?
A: .625 µM (≈ 0.672 µg/mL)

Q: And the MFC (Alternaria brassicae)?
A: 2.5 µM (≈ 2.69 µg/mL)

Q: And the MIC (Alternaria brassicae)?
A: 1.25 µM (≈ 1.34 µg/mL)

Q: What about the “antifungal activity (fungal growth/infection), in words” value (Candida albicans SC5314; 0.1% 118A, 2% fluconazole, 5% natamycin, FIG. 11) of the same compound?
A: inhibited the growth; also recorded: eliminated the fungus

Q: And the “effect of different doses” value (Candida albicans SC5314; 50-1,000 μg/mL, FIG. 8)?
A: effective at reducing or eliminating the fungus

Q: What about the CFU (Candida albicans SC5314; 118A 0.1% (1 mg/ml), natamycin 5% (50 mg/ml), fluconazole 2% (20 mg/ml)) of the same compound?
A: 0 CFU

Q: And the MFC (Alternaria brassicicola)?
A: 20 µM (≈ 21.5 µg/mL)

Q: And the MIC (Alternaria brassicicola)?
A: 5 µM (≈ 5.38 µg/mL)

Q: And the MFC (Alternaria tennuissiema)?
A: 10 µM (≈ 10.8 µg/mL)

Q: What about the MIC (Alternaria tennuissiema) of the same compound?
A: 10 µM (≈ 10.8 µg/mL)
